Laboratory results published in ChEMBL document CHEMBL4190180 (Medchemcomm, 2016).

Assays:
[1] = Potentiation of doxorubicin-induced cytotoxicity in mouse L5178 cells assessed as combination index at ED50 in presence of 163:1 ratio of doxorubicin to test compound after 48 hrs by MTT assay; format: functional
[2] = Antiproliferative activity against mouse L5178 cells after 72 hrs by MTT assay; format: functional, cell-based; settings: L5178, 72 h
[3] = molecular target: T1, ATP-dependent translocase ABCB1 (Homo sapiens, UniProt P08183); assay: Inhibition of human ABCB1 expressed in mouse L5178 cells assessed as potentiation of doxorubicin-induced cytotoxicity by measuring combination index at ED75 in presence of 81.5:1 ratio of doxorubicin to test compound after 48 hrs by MTT assay; format: cell-based
[4] = Potentiation of doxorubicin-induced cytotoxicity in mouse L5178 cells assessed as combination index at ED75 in presence of 163:1 ratio of doxorubicin to test compound after 48 hrs by MTT assay; format: functional
[5] = Potentiation of doxorubicin-induced cytotoxicity in mouse L5178 cells assessed as combination index at ED90 in presence of 81.5:1 ratio of doxorubicin to test compound after 48 hrs by MTT assay; format: functional
[6] = molecular target: T1, ATP-dependent translocase ABCB1; assay: Inhibition of human ABCB1 expressed in mouse L5178 cells assessed as potentiation of doxorubicin-induced cytotoxicity by measuring combination index at ED50 in presence of 10.2:1 ratio of doxorubicin to test compound after 48 hrs by MTT assay; format: cell-based
MCF7 = assay: Antiproliferative activity against human MCF7 cells after 72 hrs by MTT assay; format: functional, cell-based; settings: MCF7, 72 h
[7] = Potentiation of doxorubicin-induced cytotoxicity in mouse L5178 cells assessed as combination index at ED50 in presence of 81.5:1 ratio of doxorubicin to test compound after 48 hrs by MTT assay; format: functional
[8] = Antiproliferative activity against mouse L5178 cells harboring human ABCB1 after 72 hrs by MTT assay; format: functional, cell-based; settings: L5178, 72 h
MDA-MB-361 = assay: Antiproliferative activity against human MDA-MB-361 cells after 72 hrs by MTT assay; format: functional, cell-based; settings: MDA-MB-361, 72 h
SH-SY5Y = assay: Antiproliferative activity against human SH-SY5Y cells after 48 hrs by MTT assay
[9] = Potentiation of doxorubicin-induced cytotoxicity in mouse L5178 cells assessed as combination index at ED75 in presence of 326:1 ratio of doxorubicin to test compound after 48 hrs by MTT assay; format: functional
[10] = Potentiation of doxorubicin-induced cytotoxicity in mouse L5178 cells assessed as combination index at ED75 in presence of 81.5:1 ratio of doxorubicin to test compound after 48 hrs by MTT assay; format: functional
[11] = molecular target: T1, ATP-dependent translocase ABCB1; assay: Inhibition of human ABCB1 expressed in mouse L5178 cells assessed as potentiation of doxorubicin-induced cytotoxicity by measuring combination index at ED90 in presence of 81.5:1 ratio of doxorubicin to test compound after 48 hrs by MTT assay; format: cell-based
[12] = molecular target: T1, ATP-dependent translocase ABCB1; assay: Inhibition of human ABCB1 expressed in mouse L5178 cells assessed as potentiation of doxorubicin-induced cytotoxicity by measuring combination index at ED75 in presence of 10.2:1 ratio of doxorubicin to test compound after 48 hrs by MTT assay; format: cell-based
[13] = molecular target: T1, ATP-dependent translocase ABCB1; assay: Inhibition of human ABCB1 expressed in mouse L5178 cells assessed as potentiation of doxorubicin-induced cytotoxicity by measuring combination index at ED90 in presence of 10.2:1 ratio of doxorubicin to test compound after 48 hrs by MTT assay; format: cell-based
[14] = molecular target: T1, ATP-dependent translocase ABCB1; assay: Inhibition of human ABCB1 expressed in mouse L5178 cells assessed as rhodamine-123 accumulation by measuring fluorescence activity ratio at 2 uM pretreated for 10 mins followed by rhodamine-123 addition measured after 20 mins by flow cytometric analysis; format: cell-based
MDA-MB-231 = assay: Antiproliferative activity against human MDA-MB-231 cells after 72 hrs by MTT assay; format: functional, cell-based; settings: MDA-MB-231, 72 h
[15] = molecular target: T1, ATP-dependent translocase ABCB1; assay: Inhibition of human ABCB1 expressed in mouse L5178 cells assessed as potentiation of doxorubicin-induced cytotoxicity by measuring combination index at ED90 in presence of 20.4:1 ratio of doxorubicin to test compound after 48 hrs by MTT assay; format: cell-based
[16] = Potentiation of doxorubicin-induced cytotoxicity in mouse L5178 cells assessed as combination index at ED90 in presence of 163:1 ratio of doxorubicin to test compound after 48 hrs by MTT assay; format: functional
[17] = Potentiation of doxorubicin-induced cytotoxicity in mouse L5178 cells assessed as combination index at ED90 in presence of 326:1 ratio of doxorubicin to test compound after 48 hrs by MTT assay; format: functional
[18] = Selectivity ratio of IC50 for human MCF7 cells to IC50 for human T47D cells; format: functional
T47D = assay: Antiproliferative activity against human T47D cells after 72 hrs by MTT assay; format: functional, cell-based
[19] = molecular target: T1, ATP-dependent translocase ABCB1; assay: Inhibition of human ABCB1 expressed in mouse L5178 cells assessed as rhodamine-123 accumulation by measuring fluorescence activity ratio at 20 uM pretreated for 10 mins followed by rhodamine-123 addition measured after 20 mins by flow cytometric analysis; format: cell-based
[20] = molecular target: T1, ATP-dependent translocase ABCB1; assay: Inhibition of human ABCB1 expressed in mouse L5178 cells assessed as potentiation of doxorubicin-induced cytotoxicity by measuring combination index at ED75 in presence of 20.4:1 ratio of doxorubicin to test compound after 48 hrs by MTT assay; format: cell-based
[21] = Potentiation of doxorubicin-induced cytotoxicity in mouse L5178 cells assessed as combination index at ED50 in presence of 326:1 ratio of doxorubicin to test compound after 48 hrs by MTT assay; format: functional
[22] = molecular target: T1, ATP-dependent translocase ABCB1; assay: Inhibition of human ABCB1 expressed in mouse L5178 cells assessed as potentiation of doxorubicin-induced cytotoxicity by measuring combination index at ED50 in presence of 81.5:1 ratio of doxorubicin to test compound after 48 hrs by MTT assay; format: cell-based
[23] = molecular target: T1, ATP-dependent translocase ABCB1; assay: Inhibition of human ABCB1 expressed in mouse L5178 cells assessed as potentiation of doxorubicin-induced cytotoxicity by measuring combination index at ED50 in presence of 20.4:1 ratio of doxorubicin to test compound after 48 hrs by MTT assay; format: cell-based

T1 sequence (P08183 whole entry): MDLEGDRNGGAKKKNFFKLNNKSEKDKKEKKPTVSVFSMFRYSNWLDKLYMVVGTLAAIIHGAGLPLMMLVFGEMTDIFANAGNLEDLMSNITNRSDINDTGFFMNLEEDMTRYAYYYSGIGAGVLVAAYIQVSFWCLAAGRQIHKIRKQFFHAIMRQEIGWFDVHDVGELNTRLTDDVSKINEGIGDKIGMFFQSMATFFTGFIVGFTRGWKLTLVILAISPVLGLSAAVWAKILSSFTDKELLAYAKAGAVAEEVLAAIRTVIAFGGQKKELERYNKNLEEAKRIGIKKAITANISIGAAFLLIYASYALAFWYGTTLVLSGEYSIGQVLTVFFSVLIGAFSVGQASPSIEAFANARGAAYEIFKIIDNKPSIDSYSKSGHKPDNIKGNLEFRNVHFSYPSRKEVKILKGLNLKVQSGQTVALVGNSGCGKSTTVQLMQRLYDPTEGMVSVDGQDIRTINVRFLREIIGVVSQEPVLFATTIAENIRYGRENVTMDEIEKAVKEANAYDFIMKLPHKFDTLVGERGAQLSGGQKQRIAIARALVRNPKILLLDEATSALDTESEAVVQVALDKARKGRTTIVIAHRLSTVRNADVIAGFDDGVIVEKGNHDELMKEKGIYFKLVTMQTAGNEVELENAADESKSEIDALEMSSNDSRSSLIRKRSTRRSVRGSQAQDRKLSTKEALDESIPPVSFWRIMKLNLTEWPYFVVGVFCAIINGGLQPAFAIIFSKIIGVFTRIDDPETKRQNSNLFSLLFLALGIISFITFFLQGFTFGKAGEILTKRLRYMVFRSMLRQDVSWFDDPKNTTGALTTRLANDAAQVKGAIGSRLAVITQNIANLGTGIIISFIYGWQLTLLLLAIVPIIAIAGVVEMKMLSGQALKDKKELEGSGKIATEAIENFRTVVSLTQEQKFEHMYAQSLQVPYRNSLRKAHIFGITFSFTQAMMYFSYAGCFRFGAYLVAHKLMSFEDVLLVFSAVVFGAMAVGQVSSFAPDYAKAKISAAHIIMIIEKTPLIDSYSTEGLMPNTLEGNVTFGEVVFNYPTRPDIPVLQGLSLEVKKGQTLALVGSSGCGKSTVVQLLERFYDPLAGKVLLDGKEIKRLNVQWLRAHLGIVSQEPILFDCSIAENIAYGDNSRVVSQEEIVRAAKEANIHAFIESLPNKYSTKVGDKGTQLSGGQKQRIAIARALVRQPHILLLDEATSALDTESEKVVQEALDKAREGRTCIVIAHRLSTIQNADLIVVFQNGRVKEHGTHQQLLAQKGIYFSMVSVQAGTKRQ

SMILES | CI [1] | IC50 [2] | CI [3] | CI [4] | CI [5] | CI [6] | IC50 (MCF7) | CI [7] | IC50 [8] | IC50 (MDA-MB-361) | IC50 (SH-SY5Y) | CI [9] | CI [10] | CI [11] | CI [12] | CI [13] | Ratio [14] | IC50 (MDA-MB-231) | CI [15] | CI [16] | other results
CC(C)(F)CC[C@@H]1OC(C)(C)O[C@]1(C)[C@H]1CC[C@@]2(F)C3=CC(=O)[C@@H]4C[C@H]5OC(C)(C)O[C@H]5C[C@]4(C)[C@H]3CC[C@]12C | 0.6 | 88.6 µM | 0.16 | 0.44 | 0.27 | 0.23 | 128 µM | 0.7 | 82.3 µM | 53.8 µM | 126 µM | 0.59 | 0.42 | 0.11 | 0.11 | 0.06 | 11.02 | 98.4 µM | 0.07 | 0.34 | CI [17]: 0.52; Ratio IC50 [18]: 3; IC50 (T47D): 49.2 µM; Ratio [19]: 89.78; CI [20]: 0.12; CI [21]: 0.72; CI [22]: 0.24; CI [23]: 0.21
CC(C)(F)CC[C@@H]1OC(C)(C)O[C@]1(C)[C@H]1CC[C@@]2(O)C3=CC(=O)[C@@H]4C[C@H]5OC(C)(C)O[C@H]5C[C@]4(C)[C@H]3CC[C@]12C | 0.85 | 48.3 µM | 0.33 | 0.76 | 0.56 | 0.19 | 63.1 µM | 0.8 | 50.1 µM | 30.9 µM | 70.7 µM | 0.96 | 0.66 | 0.33 | 0.17 | 0.16 | 1.59 | 48.9 µM | 0.19 | 0.71 | CI [17]: 0.91; IC50 (T47D): 70.3 µM; Ratio [19]: 38.62; CI [20]: 0.19; CI [21]: 1.04; CI [22]: 0.35; CI [23]: 0.19
CC(C)(O)CC[C@@H]1OC(C)(C)O[C@]1(C)[C@H]1CC[C@@]2(O)C3=CC(=O)[C@@H]4C[C@H]5OC(C)(C)O[C@H]5C[C@]4(C)[C@H]3CC[C@]12C | 0.67 | 82.9 µM | 0.22 | 0.55 | 0.68 | 0.31 | 75.1 µM | 0.74 | 106 µM | 69.2 µM | 127 µM | 0.55 | 0.71 | 0.12 | 0.18 | 0.11 | 3.33 | 106 µM | 0.07 | 0.46 | CI [17]: 0.51; IC50 (T47D): 84.7 µM; Ratio [19]: 11.28; CI [20]: 0.14; CI [21]: 0.61; CI [22]: 0.39; CI [23]: 0.27
CC(C)(O)CC[C@@H]1OC(C)(C)O[C@]1(C)[C@H]1CC=C2C3=CC(=O)[C@@H]4C[C@H]5OC(C)(C)O[C@H]5C[C@]4(C)[C@H]3CC[C@@]21C | 0.93 | 14.6 µM | 0.87 | 0.89 | 0.82 | 0.55 | 30.1 µM | 0.99 | 19.3 µM | 13.8 µM | 20.8 µM | 0.81 | 0.89 | 0.69 | 0.45 | 0.39 | 1.28 | 38.5 µM | 0.37 | 0.86 | CI [17]: 0.73; Ratio IC50 [18]: 3; IC50 (T47D): 10.9 µM; Ratio [19]: 57.36; CI [20]: 0.44; CI [21]: 0.9; CI [22]: 1.09; CI [23]: 0.54
CC(C)(F)CC[C@@H]1OC(C)(C)O[C@]1(C)[C@H]1CC=C2C3=CC(=O)[C@@H]4C[C@H]5OC(C)(C)O[C@H]5C[C@]4(C)[C@H]3CC[C@@]21C | 0.8 | 14.1 µM | 0.73 | 0.87 | 0.89 | 0.56 | 43.8 µM | 0.73 | 17.4 µM | 11.8 µM | 18.8 µM | 0.84 | 0.8 | 0.69 | 0.34 | 0.22 | 31.15 | 50.2 µM | 0.28 | 0.95 | CI [17]: 0.9; Ratio IC50 [18]: 3; IC50 (T47D): 17.4 µM; Ratio [19]: 109.37; CI [20]: 0.36; CI [21]: 0.79; CI [22]: 0.78; CI [23]: 0.48
COc1cccc2c1C(=O)c1c(O)c3c(c(O)c1C2=O)C[C@@](O)(C(=O)CO)C[C@@H]3O[C@H]1C[C@H](N)[C@H](O)[C@H](C)O1 [DOXORUBICIN] | – | 0.23 µM | – | – | – | – | – | – | 3.54 µM | – | 0.14 µM | – | – | – | – | – | – | – | – | – | –
